“Also recorded” adds a separate entry of the source.
Columns and labels:
Bean callus cell culture = assay: Growth of bean callus cell culture (Example XIX); assay type: cell-based, Phaseolus vulgaris, var. seafarer
Experimental: (§1) Cell cultures were separately grown in disposable petri dishes.
4. Bean (Phaseolus vulgaris, var. seafarer)
(§2) The cultures were grown on the basic medium of mineral salts described by Linsmaier and Skoog (Physiol. Plant, […] (1965)). Vitamins and hormones varied for each tissue (Table X-1) to maintain the tissues in an undifferentiated state. For all of the tissues inositol was 100 mg/liter and agar 1%. Sucrose was 3% for all but the bean which was 2%.
(§3) Callus was produced from pith for tobacco, potato and tomato. Bean callus was produced from hypocotyl sections and barley callus from immature ovarian tissue. Subcultures were maintained on the appropriate media.
(§4) Stock solutions of triacontanol were prepared at a concentration of 100 μg/ml. The solvent used was glass distilled benzene. The lower concentrations were obtained by serial dilutions. Treatments were applied to 4.5 cm Whatman #1 filter paper disks in 100 μl aliquots. Controls received 100 μl of glass distilled benzene. The solvent was evaporated for approximately 15 minutes and the filter papers were then placed on the agar medium.
(§5) Callus tissue was then broken into pieces of approximately the same size (10 mg) and placed in the petri dishes on the treated filter paper (one piece per dish). For experiments conducted in the light the intensity was approximately 2.0 microwatts/cm^2 -namometer. Fresh weight measurements were made after 12 days of growth.

IR-8 rice seedlings [1] = assay: Dry weight of rice seedlings in the dark with and without carbon dioxide (Example VII); assay type: in vivo
Experimental: (§6) Rice seed cv. IR-8, or Starbonnet was surface treated with 0.1 percent mercuric chloride and planted in 77 cc plastic cups containing vermiculite and watered with one-fourth Hoagland's nutrient solution containing 3 mM of nitrogen at pH 5.0. After 10 days, seedlings were transplanted to 220 cc specimen cups wrapped in aluminum foil and containing 180 cc of the same Hoagland's nutrient solution. Four seedlings were suspended in the solution with a sponge rubber disc. The plants were grown under a 8 h night at 25° C. and a 16 h day at 30° C. with 21 and 8 μwatts per cm^2 in the blue and red spectra respectively. In the test with varying light intensity the high light intensity was 30 13 and the low intensity was 15 and 8 μwatts per cm^2 for the blue and red spectra respectively. The nutrient solution was renewed every 2 or 3 days. After one week the plants were sorted for size and similar sized plants assigned to the same block for the experiment. Prior to the initiation of a test the plants in each cup were assigned treatment numbers by use of a random number table. […] Sixteen hours prior to a test the foil wrapped cups were tared, and filled with one-half Hoaglands solution containing 6 mM nitrogen. Eighteen μl of chloroform or chloroform containing 1.8 μg triacontanol were placed on 2 cm^2 of Whatman No. 1 filter papers, air dried and placed in the specimen cups. This concentration of 10 μg triacontanol/liter was used for all tests described in the following Examples except where specifically indicated to the contrary. Immediately prior to the test the cups were all brought up to 180 ml. including a set of cups without plants to measure evaporation.
In the tests comparing dry weight accumulation in plants grown either in the absence of CO2 or in normal air were grown as previously described except the test was initiated at the end of the 16 hour light period.
(§7) Plants were placed in 20×32 cm glass jars fitted with gas inlet and outlet ports. Three jars containing 2 cups each were used for a total of 24 plants for each treatment. The plants were ventilated with air or freed of CO2 by passing it through ascarite and then humidified. The flow rate was approximately 300 ml/minute. Carbon dioxide-free air was also used to purge the appropriate jars during a two minute period required to place the plants in the jars. The N analyses were done by the automated micro-Kjelldahl procedure of Ferrari (1960).
To determine the response of rice seedlings grown in the dark with and without carbon dioxide, 17 day old "IR-8" rice seedlings were grown in the dark for 6 hours. All the parameters of CO2 vs no CO2 and of triacontanol vs no triacontanol were run. The testing procedures were described above.

[2] = system: Heinz 1350 tomato seedlings; assay: Tomato seedlings in nutrient culture, two application methods (Table XIII); assay type: in vivo
Description: These tests were run to determine the response of "Heinz 1350" tomato seedlings to applications of triacontanol in nutrient culture, in two different application methods.

IR-8 rice seedlings [3] = assay: Dry weight and total protein of 18-day-old rice seedlings in light and dark for 24 hours (Examples X and XVII); assay type: in vivo; conditions: for Dry Wt, Entire Plant / Dry Wt, Expanded leaves / Dry Wt, Roots / Dry Wt, Sheaths: 24 hours
Experimental: as §6, §7
Using the materials and procedures set forth above, dry weight and total protein (nitrogen) content of 18-day-old "IR-8" rice seedlings grown in light and dark for 24 hours with or without triacontanol was determined. Table X sets forth the results:
This example was run to determine the percent change in dry weight of whole 18-day-old "IR-8" rice seedlings treated with triacontanol in the light and dark over a 24 hour period expressed as percent change from zero time. The dry weight at zero time was 50.8 mg per seedling.

Coho barley seedlings = assay: Barley seedlings, triacontanol solutions applied to soil (Example XV); assay type: in vivo
Description: To study the growth of 25-day-old "Coho" barley seedlings treated with triacontanol solutions applied to the soil in the greenhouse. Treatments were started when seedlings were 13 days old.

Larker barley = assay: Single and multiple foliar applications on barley (Example XII); assay type: in vivo
Description: Tests were run, under the conditions above described, to determine the response of "Michigan 396" field corn and "Larker" barley to single and multiple foliar applications of triacontanol at […]. Plants were one week old at time of first treatment and 25 days old at time or harvest. Table XII states the test results.

Mich. 396 Field Corn = assay: Single and multiple applications on field corn at two fertility levels (Example XIV); assay type: in vivo
Experimental: Tests were run to study the effect of single and multiple applications of triacontanol on the growth of "Mich. 396 Field Corn" grown at two Fertility Levels in a greenhouse soil. Plants were treated at 14 days after planting and were harvested 37 days after planting. The following results were obtained (Table XIV).

[4] = system: Potato callus cell culture; assay: Growth of potato callus cell culture (Example XIX); assay type: cell-based, Solanum tuberosum, var. adveria
Experimental: as §1
3. Potato (Solanum tuberosum, var. adveria)
as §2, §3, §4, §5

[5] = printed 10.0 g triacontanol, 12 days

## CCCCCCCCCCCCCCCCCCCCCCCCCCCCCCO [Triacontanol, 1-triacontanol]
Bean callus cell culture; bean
  growth of in vitro cell cultures: significant increases in growth
Bean callus cell culture; [5]
  % of control: 149 % of control
  Fresh weight: 19.8
IR-8 rice seedlings [1]; dark 6 hours
  CO2 fixation in the dark: stimulated rice seedlings to fix CO2 in the dark; also recorded: stimulates plants, such as rice seedlings, to fix CO2 in the dark
IR-8 rice seedlings [1]; with CO2, dark 6 hours
  Dry Wt, Expanded leaves: 26.7 mg/plant
  Dry Wt, Roots: 25.6 mg/plant
  Dry Wt, Whole Plant: 71.9 mg/plant
IR-8 rice seedlings [1]; without CO2, dark 6 hours
  Dry Wt, Expanded leaves: 22.4 mg/plant
  Dry Wt, Roots: 23.2 mg/plant
  Dry Wt, Whole Plant: 62.0 mg/plant
[2]; filter paper, 0.01
  Dry wt: 382 mg/seedling
[2]; filter paper, 0.10
  Dry wt: 430 mg/seedling
[2]; foliar, 0.01
  Dry wt: 405 mg/seedling
[2]; foliar, 0.10
  Dry wt: 407 mg/seedling
IR-8 rice seedlings [3]; dark, 6- and 24-hour harvests
  dry weight in the dark versus dark controls: gained significantly more weight than the dark controls
IR-8 rice seedlings [3]; dark
  Dry Wt, Entire Plant: 55.0 mg/plant
  Dry Wt, Expanded leaves: 22.0 mg/plant
  Dry Wt, Roots: 20.3 mg/plant
  Dry Wt, Sheaths: 12.8 mg/plant
IR-8 rice seedlings [3]; light
  Dry Wt, Entire Plant: 72.9 mg/plant
  Dry Wt, Expanded leaves: 30.3 mg/plant
  Dry Wt, Roots: 24.6 mg/plant
  Dry Wt, Sheaths: 18.0 mg/plant
Coho barley seedlings; nutrients 0, triacontanol 0.01 mg/L
  Seedling wt: 275 mg/shoot
Coho barley seedlings; nutrients 0, triacontanol 0.10 mg/L
  Seedling wt: 270 mg/shoot
Coho barley seedlings; nutrients 100 mg 20-20-20/L, triacontanol 0.01 mg/L
  Seedling wt: 310 mg/shoot
Coho barley seedlings; nutrients 100 mg 20-20-20/L, triacontanol 0.10 mg/L
  Seedling wt: 316 mg/shoot
Coho barley seedlings; nutrients 1000 mg 20-20-20/L, triacontanol 0.01 mg/L
  Seedling wt: 438 mg/shoot
Coho barley seedlings; nutrients 1000 mg 20-20-20/L, triacontanol 0.10 mg/L
  Seedling wt: 442 mg/shoot
Larker barley; treated at 7, 12 and 18 days
  Dry wt, Barley: 210 mg/shoot
Larker barley; treated at 7 and 12 days
  Dry wt, Barley: 206 mg/shoot
Larker barley; treated at 12 and 18 days
  Dry wt, Barley: 214 mg/shoot
Larker barley; treated at 7 days
  Dry wt, Barley: 205 mg/shoot
Larker barley; treated at 12 days
  Dry wt, Barley: 197 mg/shoot
Larker barley; treated at 18 days
  Dry wt, Barley: 193 mg/shoot
Mich. 396 Field Corn; high fertility, 1 application
  Dry Weight: 2.032 g/plant
Mich. 396 Field Corn; high fertility, 5 applications
  Dry Weight: 1.913 g/plant
Mich. 396 Field Corn; low fertility, 1 application
  Dry Weight: 1.297 g/plant
Mich. 396 Field Corn; low fertility, 5 applications
  Dry Weight: 1.696 g/plant
[4]; potato
  growth of in vitro cell cultures: significant increases in growth
[4]; [5]
  % of control: 121 % of control
  Fresh weight: 23.5

Source: patent US4150970A, “Growth regulator for plants” (Board of Trustees of Michigan State University, priority 1977, dated 1979)
